Data as given in ChEMBL document CHEMBL1909606, “Polarization in the structures of uracil and thiouracils: Implication for binding with orotidine 5'-monophosphate decarboxylase” (Bioorg Med Chem Lett, 2011).

Assay: Binding affinity to orotidine-5'-monophosphate decarboxylase relative to uracil

Structure (SMILES): Oc1nccc(S)n1
- relative binding affinity (RBA): 61

Structure (SMILES): O=c1cc[nH]c(=S)[nH]1
- relative binding affinity (RBA): 29
